Article PMC7915275, “Mycobacterial and Human Ferrous Nitrobindins: Spectroscopic and Reactivity Properties” (International Journal of Molecular Sciences, 2021)
Converted amounts (≈) assume the structure as drawn. Where two headings read alike, the source gives them in different places.

Tests used:
[1] = target: T1, At-Nb(II) (Arabidopsis thaliana, UniProt O64527); set-up: method as in PMID 19938152; details: pH 7.0, 20.0 °C, cited from earlier work
T1 construct: made in house

[2] = target: Rp-NP7(II); set-up: method as in PMID 22594621; details: pH 7.5, 20.0 °C, cited from earlier work
[3] = test system: Ec-Mb(II); details: cited from earlier work
[4] = test system: Pc-Mb(II); set-up: method as in PMID 2303446; details: pH 7.0, 20.0 °C, cited from earlier work
[5] = target: T2, Hs-Nb(II) (Homo sapiens, UniProt Q8WY91); experiment: CO binding to and dissociation from Hs-Nb(II) by rapid-mixing stopped-flow (incl. CO displacement by NO); details: for kobs(CO): λ = 421 nm
T2 construct: Homo sapiens Nb (Hs-Nb) is the C-terminal domain of the THAP4 protein; made in house
T2 sequence (Q8WY91 415-577 limits assumed): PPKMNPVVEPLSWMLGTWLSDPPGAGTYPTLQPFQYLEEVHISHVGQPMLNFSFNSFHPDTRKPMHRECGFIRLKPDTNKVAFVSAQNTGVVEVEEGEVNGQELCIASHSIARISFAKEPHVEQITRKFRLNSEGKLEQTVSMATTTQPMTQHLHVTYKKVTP
Experimental: Progress kinetic curves at selected wavelengths were analyzed according to Equation (1): (1) ODobs=OD0±∑i=1i−nΔODie^(−kit) where ODobs is the observed optical density at a selected wavelength and at a given time interval, OD0 is the optical density at t = 0, n is the number of exponentials, ΔODi is the optical density change associated to the exponential i, ki is the pseudo-first-order rate constant of the exponential i (i.e., kobs(CO)) and t is the time. Since data collection occurs on a logarithmic scale, experimental points in the first second represent the absolute majority (about 70 out of 100 points) of total collected ones.
Values of the second-order rate constant for Mt-Nb(II)-CO and Hs-Nb(II)-CO formation (i.e., kon(CO)) and of the first-order rate constant for CO dissociation from Mt-Nb(II)-CO and Hs-Nb(II)-CO (i.e., koff(CO)) were obtained from the dependence of the pseudo-first-order rate constant for Mt-Nb(II) and Hs-Nb(II) carbonylation (i.e., kobs(CO)) on the ligand concentration (i.e., [CO]) according to Equation (2):kobs(CO) = kon(CO) × [CO] + koff(CO)(2)
The values of the first-order rate constant for CO dissociation from Mt-Nb(II)-CO and Hs-Nb(II)-CO (i.e., for CO replacement by NO; koff(CO)) were also determined by mixing the Mt-Nb(II)-CO and Hs-Nb(II)-CO (final concentration, 2.0 × 10^−6 M to 5.0 × 10^−6 M; [CO] = 1.0 × 10^−4 M) solutions with the NO saturated solution (final concentration, […]), under anaerobic conditions (i.e., in the presence of 2.0 × 10^−3 M sodium dithionite), at pH 7.0 (1.0 × 10^−1 M phosphate buffer), and 25.0 °C; no gaseous phase was present. Kinetics of CO dissociation from Mt-Nb(II)-CO and Hs-Nb(II)-CO was recorded at 421 nm.
The conversion of Mt-Nb(II)-CO and Hs-Nb(II)-CO to Mt-Nb(II)-NO and Hs-Nb(II)-NO, respectively, was analyzed in the framework of Scheme 2 [75]:
The values of koff(CO) were determined from data analysis, according to Equation (1). The over 100-fold excess of NO over CO guarantees that the reaction proceeds rightward because kon(NO) × [NO] >> kon(CO) × [CO] [75].
Rapid-mixing experiments were carried out employing an SX18.MV stopped-flow apparatus (Applied Photophysics, Salisbury, UK), equipped with a diode array for spectra acquisition over a 1 ms time range (the light path of the observation chamber was 10 mm) and an SFM-20/MOS-200 rapid-mixing stopped-flow apparatus (BioLogic Science Instruments, Claix, France) (the light path of the observation chamber was 10 mm).

[6] = target: T3, Mt-Nb(II) (Mycobacterium tuberculosis, UniProt P9WFG7); experiment: CO rebinding to Mt-Nb(II) after nanosecond laser flash photolysis
T3 sequence (P9WFG7 whole entry): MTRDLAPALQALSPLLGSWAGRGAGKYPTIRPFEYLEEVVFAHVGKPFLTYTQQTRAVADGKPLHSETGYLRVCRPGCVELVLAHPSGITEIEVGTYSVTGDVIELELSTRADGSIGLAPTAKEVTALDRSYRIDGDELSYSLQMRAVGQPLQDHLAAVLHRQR
Excerpt: CO rebinding kinetics to Mt-Nb(II) and Hs-Nb(II) at pH 7.4 (5.0 × 10^−2 M phosphate buffer) was obtained using the second harmonic (532 nm) of a Q-switched Nd:YAG laser (Surelite I-10, Continuum, Santa Clara, CA, USA) and the cw output of a 150 W Xe arc lamp was used as probe beam to monitor absorbance changes at 436 nm.
The CO adducts were obtained by equilibrating solutions in either 0.2 CO atm or 1.0 CO atm. The oxidation state, the molar fraction of ferrous carbonylated Nbs, and the Nb concentration were determined spectrophotometrically. Kinetics were analyzed according to Scheme 3.
According to Scheme 3, there are two types of processes, namely the formation of the A state directly from state B, which is much faster and independent on the ligand concentration (geminate recombination), whose extent φgem depends on the relative rates kBA(L) and kBC(L) according to the following relationship (3) φgem= kBA(L)/(kBA(L)+kBC(L)) and the observed rate rgem corresponds to (4) rgem= kBA(L)+ kBC(L) the formation of state A from state C (through the transient formation of state B), which depends on the ligand concentration (bimolecular recombination) and it is characterized by the second-order rate rbim corresponding to (5) rbim= kCB(L) × φgem

[7] = test system: Pc-Mb(II); experiment: CO binding kinetics to Pc-Mb(II) (literature); set-up: species or system Physeter catodon
[8] = cited from earlier work
[9] = target: T2, Hs-Nb(II); experiment: CO rebinding to Hs-Nb(II) after nanosecond laser flash photolysis; type: binding
Experimental: Kinetics were analyzed according to Scheme 3.

[10] = test system: Ec-Mb(II); experiment: CO binding kinetics to Ec-Mb(II) (literature); set-up: species or system Equus caballus
[11] = target: T3, Mt-Nb(II); experiment: CO binding to and dissociation from Mt-Nb(II) by rapid-mixing stopped-flow (incl. CO displacement by NO); set-up: made in house
[12] = target: Rp-NP4(II); set-up: method as in PMID 22594621; details: pH 7.5, 20.0 °C, cited from earlier work
[13] = target: T1, At-Nb(II); experiment: O2 dissociation from At-Nb(II)-O2 by oxygen pulse experiments; type: binding; details: At-Nb(II)-O2, pH 7.0, 25.0 °C
Experimental: (§1) Kinetics of O2 dissociation from the transient Mt-Nb(II)-O2, At-Nb(II)-O2 and Hs-Nb(II)-O2 species were investigated spectrophotometrically at pH 7.0 (1.0 × 10^−1 M phosphate buffer) and 25.0 °C by oxygen pulse experiments. This type of reaction proceeds according to Scheme 6.
(§2) The deoxygenation of Mt-Nb(II)-O2 and Hs-Nb(II)-O2 process was followed at 431 nm. Kinetics of Mt-Nb(II)-O2 and Hs-Nb(II)-O2 deoxygenation were analyzed according to Equation (1).
(§3) Rapid-mixing experiments were carried out employing an SX18.MV stopped-flow apparatus (Applied Photophysics, Salisbury, UK) equipped with a diode array for spectra acquisition over a 1 ms time range; the light path of the observation chamber was 10 mm.

[14] = test system: Pc-Mb(II); set-up: method as in PMID 5800433; details: pH 7.0, 20.0 °C, temperature-jump method; cited from earlier work
[15] = target: T2, Hs-Nb(II); experiment: O2 dissociation from Hs-Nb(II)-O2 by oxygen pulse experiments; type: binding; details: Hs-Nb(II)-O2, pH 7.0, 25.0 °C
Experimental: as §1, §2, §3

[16] = target: T3, Mt-Nb(II); experiment: O2 dissociation from Mt-Nb(II)-O2 by oxygen pulse experiments; type: binding; set-up: made in house; details: Mt-Nb(II)-O2, pH 7.0, 25.0 °C
Experimental: as §1, §2, §3

[17] = faster phase, Eyring plots 10.0-40.0 °C
[18] = slower phase, Eyring plots 10.0-40.0 °C

T1 sequence (O64527 whole entry): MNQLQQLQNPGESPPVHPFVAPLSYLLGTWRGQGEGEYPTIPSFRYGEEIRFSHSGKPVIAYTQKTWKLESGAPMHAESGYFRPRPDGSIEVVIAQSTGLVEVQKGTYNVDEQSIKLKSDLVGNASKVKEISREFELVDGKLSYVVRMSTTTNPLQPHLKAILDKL

Structure (SMILES): [C-]#[O+] [CO]
- Kd ([1]; read-out: K (=koff/kon) for CO): 220 nM
- koff(CO) [1]: 0.05 s⁻¹
- kon(CO) [1]: 230000 M⁻¹ s⁻¹
- Kd ([2]; read-out: K (=koff/kon) for CO, first value (30% phase)): 0.088 nM
- Kd ([2]; read-out: K (=koff/kon) for CO, second value (70% phase) (converted)): 0.015 nM
- koff(CO), 30% phase [2]: 0.0044 s⁻¹
- koff(CO), 70% phase [2]: 0.00076 s⁻¹
- kon(CO) [2]: 5e+07 M⁻¹ s⁻¹
- koff(CO) ([3]; footnote not given): 0.035 s⁻¹
- kon(CO) ([3]; pH 7.0, 20.0 °C): 500000 M⁻¹ s⁻¹
- kon(CO) ([3]; pH 7.0, 25.0 °C): 610000 M⁻¹ s⁻¹
- Kd ([3]; read-out: K (=koff/kon) for CO): 57 nM
- kon(CO) ([4]; rapid-mixing and laser photolysis): 510000 M⁻¹ s⁻¹
- Kd ([4]; read-out: K (=koff/kon) for CO): 37 nM
- koff(CO) [4]: 0.019 s⁻¹
- kobs(CO) ([5]; Hs-Nb(II), [CO] = 2.1 × 10^−4 M, pH 7.0, 25.0 °C): (2.4 ± 0.3) × 10^1 s^−1
- kobs(CO) ([5]; Hs-Nb(II), [CO] = 4.5 × 10^−5 M, pH 7.0, 25.0 °C): 8.3 ± 0.9 s⁻¹
- kobs(CO) ([5]; Hs-Nb(II), [CO] = 7.0 × 10^−5 M, pH 7.0, 25.0 °C): (1.1 ± 0.1) × 10^1 s^−1
- Kd ([5]; Hs-Nb(II), pH 7.0, 25.0 °C, read-out: K (=koff/kon) for CO): 38000 nM
- kon(CO) ([5]; Hs-Nb(II), rapid-mixing, pH 7.0, 25.0 °C): 100000 M⁻¹ s⁻¹
- koff(CO) ([5]; Hs-Nb(II)-CO, pH 7.0, 25.0 °C): 3.8 ± 0.5 s⁻¹
- activation free energy ΔG^‡ of CO binding ([5]; Hs-Nb, from CO binding rate constant): 10.4 kcal/mol
- ΔH1^‡ bimolecular CO binding [6, 17]: 7.65 ± 0.48 kcal/mol
- ΔG1^‡ bimolecular CO binding ([6]; faster phase, at 20.0 °C): 10 ± 0.72 kcal/mol
- φgem (CO geminate rebinding) ([6]; laser photolysis): ≤ 0.05
- ΔH2^‡ bimolecular CO binding [6, 18]: 8.6 ± 0.96 kcal/mol
- ΔG2^‡ bimolecular CO binding ([6]; slower phase, at 20.0 °C): 10.5 ± 0.96 kcal/mol
- activation free energy ΔG^‡ of CO binding [7]: 9.49 kcal/mol
- solubility in the aqueous buffered solution ([8]; p = 760.0 mm Hg, 20.0 °C, phosphate buffer pH 7.0): 1030 µM (≈ 28.9 µg/mL)
- rgem (CO geminate recombination rate) ([9]; 25 °C): 9e+07 s⁻¹
- kBA(CO) ≈ rgem × φgem ([9]; Equation (3)): ≈ 4.5 × 10^6 s^−1
- kBC(CO) ≈ rgem - kBA(CO) ([9]; escape to solvent): ≈ 8.5 × 10^7 s^−1
- ΔH1^‡ bimolecular CO binding [9, 17]: 9.08 ± 0.96 kcal/mol
- ΔG1^‡ bimolecular CO binding ([9]; faster phase, at 20.0 °C): 8.37 ± 2.87 kcal/mol
- geminate CO recombination, share of total amplitude of the rebinding process ([9]; laser photolysis): ~ 5%
- φgem (CO geminate rebinding) ([9]; laser photolysis): ≤ 0.05
- ΔH2^‡ bimolecular CO binding [9, 18]: 9.08 ± 0.96 kcal/mol
- ΔG2^‡ bimolecular CO binding ([9]; slower phase, at 20.0 °C): 10 ± 1.4 kcal/mol
- activation free energy ΔG^‡ of CO binding [10]: 9.37 kcal/mol
- Kd ([11]; Mt-Nb(II), pH 7.0, 25.0 °C, read-out: K (=koff/kon) for CO): 63000 nM
- kon(CO) ([11]; Mt-Nb(II), rapid-mixing, pH 7.0, 25.0 °C): 55000 M⁻¹ s⁻¹
- koff(CO) ([11]; Mt-Nb(II)-CO, pH 7.0, 25.0 °C): 3.5 ± 0.5 s⁻¹
- activation free energy ΔG^‡ of CO binding ([11]; Mt-Nb, from CO binding rate constant): 10.8 kcal/mol
- Kd ([12]; read-out: K (=koff/kon) for CO, first value (77% phase)): 0.22 nM
- Kd ([12]; read-out: K (=koff/kon) for CO, second value (23% phase)): 0.22 nM
- koff(CO), 23% phase [12]: 0.0041 s⁻¹
- koff(CO), 77% phase [12]: 0.0097 s⁻¹
- kon(CO), 23% phase [12]: 1.9e+07 M⁻¹ s⁻¹
- kon(CO), 77% phase [12]: 4.5e+07 M⁻¹ s⁻¹

Structure (SMILES): O=O [O2]
- koff(O2) [13]: 6.8 s⁻¹
- koff(O2) [14]: 10 s⁻¹
- solubility in the aqueous buffered solution ([8]; p = 760 mm Hg, T = 20.0 °C, phosphate buffer pH 7.0, reference not given): 1250 µM (≈ 40 µg/mL)
- koff(O2) [15]: 19 s⁻¹
- koff(O2) [16]: 11 s⁻¹
